{
  "source": "patent US7419981B2",
  "about": "“Synergistic combinations of an alpha-2-delta ligand and a cGMP phosphodieterse 5 inhibitor” (Pfizer Inc., priority 2002, dated 2008)",
  "key": {"[1]": {"tested_on": "CCI-induced dynamic allodynia", "experiment": "CCI-induced dynamic allodynia, paw withdrawal latency to cotton bud stimulus", "assay_type": "in vivo, rat", "settings": "for blockade of dynamic allodynia: alone; for minimum effective dose (MED), blockade of maintenance of dynamic allodynia: administered alone, gabapentin p.o., sildenafil s.c.; for time of peak antiallodynic actions: post administration, CCI-induced dynamic model", "procedure": "Male Sprague Dawley rats (200-250 g), obtained from Charles River, (Margate, Kent, U.K.) were housed in groups of 6. All animals were kept under a 12 h light/dark cycle (lights on at 07 h 00 min) with food and water ad libitum. All experiments were carried out by an observer unaware of drug treatments. Animals were anaesthetised with isoflurane. The sciatic nerve was ligated as previously described by Bennett and Xie, 1988. Animals were placed on a homeothermic blanket for the duration of the procedure. After surgical preparation the common sciatic nerve was exposed at the middle of the thigh by blunt dissection through biceps femoris. Proximal to the sciatic trifurcation, about 7 mm of nerve was freed of adhering tissue and 4 ligatures (4-0 silk) were tied loosely around it with about 1 mm spacing. The incision was closed in layers and the wound treated with topical antibiotics. […] Combinations were examined following a fixed ratio design. A dose-response to each fixed dose ratio of the combination was performed. On each test day, baseline paw withdrawal thresholds (PWT) to von Frey hairs and paw withdrawal latencies (PWL) to a cotton bud stimulus were determined prior to drug treatment. […] Dynamic allodynia was assessed by lightly stroking the plantar surface of the hind paw with a cotton bud. Care was taken to perform this procedure in fully habituated rats that were not active to avoid recording general motor activity. At least three measurements were taken at each time point the mean of which represented the paw withdrawal latency (PWL). […] Thus 15 s effectively represents no withdrawal. A withdrawal response was often accompanied with repeated flinching or licking of the paw. Dynamic allodynia was considered to be present if animals responded to the cotton stimulus before 8 s of stroking."}, "[2]": {"tested_on": "CCI-induced static allodynia", "experiment": "CCI-induced static allodynia, paw withdrawal threshold to von Frey hairs", "assay_type": "in vivo, rat", "settings": "for blockade of static allodynia: alone; for minimum effective dose (MED), blockade of maintenance of static allodynia: administered alone, gabapentin p.o., sildenafil s.c.; for time of peak antiallodynic actions: post administration, CCI-induced static model", "procedure": "Male Sprague Dawley rats (200-250 g), obtained from Charles River, (Margate, Kent, U.K.) were housed in groups of 6. All animals were kept under a 12 h light/dark cycle (lights on at 07 h 00 min) with food and water ad libitum. All experiments were carried out by an observer unaware of drug treatments.\nAnimals were anaesthetised with isoflurane. The sciatic nerve was ligated as previously described by Bennett and Xie, 1988. Animals were placed on a homeothermic blanket for the duration of the procedure. After surgical preparation the common sciatic nerve was exposed at the middle of the thigh by blunt dissection through biceps femoris. Proximal to the sciatic trifurcation, about 7 mm of nerve was freed of adhering tissue and 4 ligatures (4-0 silk) were tied loosely around it with about 1 mm spacing. The incision was closed in layers and the wound treated with topical antibiotics.\nDose-responses to gabapentin and sildenafil were first performed alone in the CCI model. Combinations were examined following a fixed ratio design. A dose-response to each fixed dose ratio of the combination was performed. On each test day, baseline paw withdrawal thresholds (PWT) to von Frey hairs and paw withdrawal latencies (PWL) to a cotton bud stimulus were determined prior to drug treatment. Gabapentin was administered p.o. directly followed by s.c. administration of sildenafil and PWT and PWL re-examined for up to 5 h. The data are expressed at the 2 h time point for both the static and dynamic data as this timepoint represent the peak antiallodynic effects.\nStatic allodynia was measured using Semmes-Weinstein von Frey hairs (Stoelting, Illinois, U.S.A.). Animals were placed into wire mesh bottom cages allowing access to the underside of their paws. Animals were habituated to this environment prior to the start of the experiment. Static allodynia was tested by touching the plantar surface of the animals right hind paw with von Frey hairs in ascending order of force (0.7, 1.2, 1.5, 2, 3.6, 5.5, 8.5, 11.8, 15.1 and 29 g) for up to 6 sec. Once a withdrawal response was established, the paw was re-tested, starting with the next descending von Frey hair until no response occurred. The highest force of 29 g lifted the paw as well as eliciting a response, thus represented the cut off point. The lowest amount of force required to elicit a response was recorded as the PWT in grams."}, "[3]": {"tested_on": "CCI-induced static allodynia", "experiment": "CCI-induced static allodynia, paw withdrawal threshold to von Frey hairs", "assay_type": "in vivo, rat", "settings": "Table 1; ratio 1:0, pregabalin 30 mg/kg alone"}},
  "note": "Counter-ions that a name gives are not always drawn.",
  "data": [
    {"smiles": "CCCC(C)(C)C[C@H](N)CC(=O)O", "note": "(as salt: hydrochloride) (hydrate or solvate)", "values": [
      {"measurement": "melting point", "value": "194.2 to 195.2", "unit": "°C"}
    ]},
    {"smiles": "CCCC(C)(C)CC(CN)C(=O)O.Cl", "note": "(centres unmarked)", "values": [
      {"measurement": "melting point", "value": "229.5 to 231", "unit": "°C"}
    ]},
    {"smiles": "CCC[C@@H](C)C[C@H](CN)C(=O)O", "note": "(as salt: hydrochloride)", "values": [
      {"measurement": "melting point", "value": "226.3 to 228", "unit": "°C"}
    ]},
    {"smiles": "NCC1(CC(=O)O)CCCCC1", "note": "[Gabapentin, 1-(aminomethyl)-cyclohexylacetic acid]", "values": [
      {"measurement": "blockade of dynamic allodynia", "setting": "[1]; 100 mg/kg p.o.", "value": "complete blockade"},
      {"measurement": "minimum effective dose (MED), blockade of maintenance of dynamic allodynia", "setting": "[1]", "value": 10, "unit": "mg/kg"},
      {"measurement": "time of peak antiallodynic actions", "setting": "[1]", "value": 2, "unit": "h"},
      {"measurement": "blockade of static allodynia", "setting": "[2]; 100 mg/kg p.o.", "value": "complete blockade"},
      {"measurement": "% reversal of allodynia", "setting": "[2]; Table 2, ratio 1:0, gabapentin 100 mg/kg alone", "value": 100, "unit": "%"},
      {"measurement": "minimum effective dose (MED), blockade of maintenance of static allodynia", "setting": "[2]", "value": 10, "unit": "mg/kg"},
      {"measurement": "time of peak antiallodynic actions", "setting": "[2]", "value": 2, "unit": "h"}
    ]},
    {"smiles": "CCCOc1ccc(S(=O)(=O)N2CCN(CC)CC2)cc1-c1nc2c(CC)n(Cc3ccccn3)nc2c(=O)[nH]1", "note": "[Compound AA, 3-Ethyl-5-[5-(4-ethyl-piperazine-1-sulfonyl)-2-propoxy-phenyl]-2-pyridin-2-ylmethyl-2,6-dihydro-pyrazolo[4,3-d]pyrimidin-7-one]", "values": [
      {"measurement": "% reversal of allodynia", "setting": "[2]; Table 2, ratio 0:1, 30 mg/kg alone (dose column headed Sildenafil)", "value": 50, "unit": "%"},
      {"measurement": "time of peak antiallodynic actions", "setting": "[2]", "value": 2, "unit": "h"}
    ]},
    {"smiles": "CCC[C@@H](C)C[C@H](N)CC(=O)O.Cl", "values": [
      {"measurement": "melting point", "value": "142.5 to 142.7", "unit": "°C"}
    ]},
    {"smiles": "CCCc1nn(C)c2c(=O)[nH]c(-c3cc(S(=O)(=O)N4CCN(C)CC4)ccc3OCC)nc12", "note": "[Sildenafil, 5-[2-ethoxy-5-(4-methyl-1-piperazinylsulphonyl)phenyl]-1-methyl-3-n-propyl-1,6-dihydro-7H-pyrazolo[4,3-d]pyrimidin-7-one]", "values": [
      {"measurement": "blockade of dynamic allodynia", "setting": "[1]; 30 mg/kg s.c. (MED)", "value": 25, "unit": "%"},
      {"measurement": "minimum effective dose (MED), blockade of maintenance of dynamic allodynia", "setting": "[1]", "value": 30, "unit": "mg/kg"},
      {"measurement": "time of peak antiallodynic actions", "setting": "[1]", "value": 2, "unit": "h"},
      {"measurement": "blockade of static allodynia", "setting": "[2]; 30 mg/kg s.c.", "value": "~60", "unit": "%"},
      {"measurement": "% reversal of allodynia", "setting": "[2]; Table 1, ratio 0:1, sildenafil 30 mg/kg alone", "value": 50, "unit": "%"},
      {"measurement": "minimum effective dose (MED), blockade of maintenance of static allodynia", "setting": "[2]", "value": 10, "unit": "mg/kg"},
      {"measurement": "time of peak antiallodynic actions", "setting": "[2]", "value": 2, "unit": "h"}
    ]},
    {"smiles": "CCCC[C@@H](C)C[C@H](N)CC(=O)O", "note": "(as salt: hydrochloride)", "values": [
      {"measurement": "melting point", "value": "142.5 to 143.3", "unit": "°C"}
    ]},
    {"smiles": "CC(C)C[C@H](CN)CC(=O)O", "note": "[Pregabalin, (S)-(+)-4-amino-3-(2-methylpropyl)butanoic acid]", "values": [
      {"measurement": "% reversal of allodynia", "setting": "[3]", "value": 100, "unit": "%"},
      {"measurement": "time of peak antiallodynic actions", "setting": "[2]", "value": 2, "unit": "h"}
    ]}
  ]
}
